According to publication PMC9571063 (Molecules, 2022):
Like-named read-outs stand apart in the source and are kept apart here.

Experiments:
Hs_HASPIN = target: T1, Hs_HASPIN (Homo sapiens, UniProt Q8TF76); experiment: ADP-Glo kinase assay, primary screen; format: biochemical; conditions: n=2, read-out: % of residual activity Hs_HASPIN
T1 construct: host or cells: bacteria
T1 sequence (Q8TF76 1-798): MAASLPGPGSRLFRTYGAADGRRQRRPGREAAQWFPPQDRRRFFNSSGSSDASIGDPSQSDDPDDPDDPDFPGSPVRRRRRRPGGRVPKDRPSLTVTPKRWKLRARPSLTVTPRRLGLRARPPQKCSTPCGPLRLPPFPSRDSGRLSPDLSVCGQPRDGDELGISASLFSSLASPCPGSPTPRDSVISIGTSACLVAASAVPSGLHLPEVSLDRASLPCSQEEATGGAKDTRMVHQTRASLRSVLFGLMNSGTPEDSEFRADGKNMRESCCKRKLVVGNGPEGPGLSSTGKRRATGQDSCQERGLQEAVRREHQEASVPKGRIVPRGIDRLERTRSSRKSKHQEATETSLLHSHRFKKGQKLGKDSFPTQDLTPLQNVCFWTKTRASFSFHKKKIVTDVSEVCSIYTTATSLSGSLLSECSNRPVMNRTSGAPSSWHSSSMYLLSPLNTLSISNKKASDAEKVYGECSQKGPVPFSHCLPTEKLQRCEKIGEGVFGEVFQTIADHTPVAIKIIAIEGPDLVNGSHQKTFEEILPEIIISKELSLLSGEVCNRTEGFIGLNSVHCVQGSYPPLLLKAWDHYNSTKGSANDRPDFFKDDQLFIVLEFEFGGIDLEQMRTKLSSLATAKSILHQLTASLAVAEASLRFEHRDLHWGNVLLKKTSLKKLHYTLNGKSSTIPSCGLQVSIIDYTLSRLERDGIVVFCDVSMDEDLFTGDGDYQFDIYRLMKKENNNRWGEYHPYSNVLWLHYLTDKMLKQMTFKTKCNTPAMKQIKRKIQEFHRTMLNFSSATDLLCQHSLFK

HsCLK1 = target: T2, HsCLK1 (Homo sapiens, UniProt P49759); experiment: ADP-Glo kinase assay; format: biochemical
T2 construct: host or cells: Sf9 insect cells (baculovirus)
T2 sequence (P49759 whole entry): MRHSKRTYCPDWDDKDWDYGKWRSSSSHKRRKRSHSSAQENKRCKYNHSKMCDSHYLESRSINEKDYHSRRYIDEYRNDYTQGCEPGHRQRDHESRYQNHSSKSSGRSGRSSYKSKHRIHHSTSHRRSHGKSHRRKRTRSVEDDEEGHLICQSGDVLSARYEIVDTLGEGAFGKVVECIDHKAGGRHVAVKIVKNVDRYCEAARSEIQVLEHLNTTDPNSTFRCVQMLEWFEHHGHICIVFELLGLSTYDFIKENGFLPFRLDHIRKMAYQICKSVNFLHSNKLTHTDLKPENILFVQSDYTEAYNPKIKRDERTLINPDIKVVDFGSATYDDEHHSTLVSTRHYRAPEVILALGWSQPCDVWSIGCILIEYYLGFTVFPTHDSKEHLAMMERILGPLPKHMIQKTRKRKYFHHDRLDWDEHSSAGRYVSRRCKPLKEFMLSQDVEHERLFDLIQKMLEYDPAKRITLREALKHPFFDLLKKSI

[1] = cytotoxic assay, nuclei count (Hoechst, HCS); format: cell-based; conditions: human, MCF7 cells (breast carcinoma); 48 h treatment; read-out: Cytotoxic studies IC50 MCF7
Protocol: (§1) To complete our study, we performed a cytotoxicity screening of the 15 molecules, investigating 7 representative cancer cell lines. The compound’s effect on cell viability was evaluated on Huh-7 (hepatocellular carcinoma), CaCo2, HCT-116 (colorectal adenocarcinoma), MCF7, MDA-MB231, MDA-MB468 (breast carcinoma), PC3 (prostate carcinoma) and NCI-H727 (lung carcinoid). Human skin fibroblasts were used as reference for non-cancerous cells. Roscovitine, Doxorubicin and Taxol were used as positive controls. The cells were treated for 48 h with 25 µM compounds and fixed in cooled 90% ethanol/5% acetic acid for 20 min. The nuclei were stained with Hoechst 33342 and counted using HCS technology.
(§2) HuH7, CaCo-2, MDA-MB-231, HCT116, PC3, MCF7 and NCI-H727 cancer cell lines were obtained from the ECACC collection (Porton Down, UK). Cells were grown at 37 °C, 5% CO2 in ECACC recommended media: DMEM for HuH7, MDA-MB-231 and fibroblast, EMEM for MCF7and CaCo-2, McCoy’s for HCT116 and RPMI for PC3 and NCI-H727. All culture media were supplemented with 10% of FBS, 1% of penicillin-streptomycin and 2 mM glutamine.
(§3) Chemicals were solubilized in DMSO at a concentration of 10 mM (stock solution) and diluted in culture medium to the desired final concentrations.
(§4) The cytotoxic assay of chemical was performed at 25 µM. Cells were plated in 96 wells plates (4000 cells/well). Twenty-four hours after seeding, cells were exposed to chemicals. After 48 h of treatment, cells were washed in PBS and fixed in cooled 90% ethanol/5% acetic acid for 20 min and the nuclei were stained with Hoechst 33342 (B2261 Sigma). Image acquisition and analysis were performed using a CellomicsArrayScan VTI/HCS Reader (ThermoScientific, Waltham, MA, USA). The survival percentages were calculated as the percentage of cell number after compound treatment over cell number after DMSO treatment.

[2] = cytotoxic assay, nuclei count (Hoechst, HCS); format: cell-based; conditions: human, 48 h treatment
Protocol: as §1, §2, §3
as §4, with “The cytotoxic assay of chemical was performed at 25 µM.” left out

[3] = cytotoxic assay, nuclei count (Hoechst, HCS); format: cell-based; conditions: human, MDA-MB-231 cells (breast carcinoma); 48 h treatment; read-out: Cytotoxic studies IC50 MDA-MB-231
Hs_CDK5/p25 = target: T3, Hs_CDK5/p25 (Homo sapiens, UniProt Q00535); experiment: ADP-Glo kinase assay, primary screen; format: biochemical; conditions: n=2, read-out: % of residual activity Hs_CDK5/p25
T3 construct: host or cells: bacteria
T3 sequence (Q00535 whole entry): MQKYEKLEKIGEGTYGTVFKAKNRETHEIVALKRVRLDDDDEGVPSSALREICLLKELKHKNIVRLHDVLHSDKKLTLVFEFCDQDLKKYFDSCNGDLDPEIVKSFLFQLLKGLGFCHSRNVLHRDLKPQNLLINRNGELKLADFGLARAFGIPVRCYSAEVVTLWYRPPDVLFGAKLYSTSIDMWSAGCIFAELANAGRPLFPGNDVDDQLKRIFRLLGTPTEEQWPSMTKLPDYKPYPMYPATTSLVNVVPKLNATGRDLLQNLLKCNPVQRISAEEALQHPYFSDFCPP
T3 sequence (Q15078 99-307 partner limits assumed): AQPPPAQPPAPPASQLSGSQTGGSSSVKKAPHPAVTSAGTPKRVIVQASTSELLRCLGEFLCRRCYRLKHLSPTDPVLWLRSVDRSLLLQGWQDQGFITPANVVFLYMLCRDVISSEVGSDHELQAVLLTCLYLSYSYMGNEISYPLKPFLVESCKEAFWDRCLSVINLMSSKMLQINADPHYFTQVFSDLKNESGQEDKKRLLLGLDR

Rn_DYRK1A = target: T4, Rn_DYRK1A (Rattus norvegicus, UniProt Q63470); experiment: ADP-Glo kinase assay, primary screen; format: biochemical; conditions: n=2, read-out: % of residual activity Rn_DYRK1A
T4 construct: host or cells: bacteria

Hs_CK1ε = target: T5, Hs_CK1ε (Homo sapiens, UniProt P49674); experiment: ADP-Glo kinase assay, primary screen; format: biochemical; conditions: n=2, read-out: % of residual activity Hs_CK1ε
T5 construct: host or cells: Sf9 insect cells (baculovirus)
T5 sequence (P49674 whole entry): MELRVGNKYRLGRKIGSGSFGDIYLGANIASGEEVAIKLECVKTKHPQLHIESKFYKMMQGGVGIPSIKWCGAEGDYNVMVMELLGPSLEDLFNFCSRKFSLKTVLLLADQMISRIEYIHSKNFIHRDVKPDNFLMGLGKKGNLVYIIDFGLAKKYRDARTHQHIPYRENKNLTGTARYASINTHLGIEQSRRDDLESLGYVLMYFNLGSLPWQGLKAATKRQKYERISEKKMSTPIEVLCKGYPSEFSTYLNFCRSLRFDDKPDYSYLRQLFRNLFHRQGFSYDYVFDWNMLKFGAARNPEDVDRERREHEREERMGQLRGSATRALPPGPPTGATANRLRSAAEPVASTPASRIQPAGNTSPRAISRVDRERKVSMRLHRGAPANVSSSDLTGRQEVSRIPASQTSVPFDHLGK

Human skin fibroblasts = experiment: cytotoxic assay, nuclei count (Hoechst, HCS); format: cell-based; conditions: summary of Table S2
Protocol: as §1, §2, §3, §4

[4] = cytotoxic assay, nuclei count (Hoechst, HCS); format: cell-based, human; conditions: human, human skin fibroblasts (non-cancerous reference cells); 48 h treatment; some cells add low/moderate/high amplitude; read-out: Cytotoxic studies IC50 Fibroblasts
Protocol: as §1, §2, §3, §4

MmCLK1 = target: T6, MmCLK1 (Mus musculus, UniProt P22518); experiment: ADP-Glo kinase assay; format: biochemical
T6 construct: host or cells: bacteria
T6 sequence (P22518 whole entry): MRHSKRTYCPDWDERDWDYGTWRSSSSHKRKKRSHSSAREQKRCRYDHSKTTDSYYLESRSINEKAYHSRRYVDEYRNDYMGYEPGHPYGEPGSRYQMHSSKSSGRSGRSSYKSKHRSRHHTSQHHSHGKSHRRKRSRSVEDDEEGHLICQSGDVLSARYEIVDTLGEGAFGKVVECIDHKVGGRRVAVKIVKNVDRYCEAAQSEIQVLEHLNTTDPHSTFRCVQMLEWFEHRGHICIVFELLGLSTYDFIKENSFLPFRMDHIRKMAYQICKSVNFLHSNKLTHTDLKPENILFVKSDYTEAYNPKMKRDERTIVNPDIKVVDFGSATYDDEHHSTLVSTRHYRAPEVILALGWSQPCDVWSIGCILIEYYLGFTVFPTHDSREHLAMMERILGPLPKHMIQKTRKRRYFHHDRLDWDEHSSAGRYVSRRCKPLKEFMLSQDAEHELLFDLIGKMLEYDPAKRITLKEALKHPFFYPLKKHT

Hs_CDK9/CyclinT = target: T7, Hs_CDK9/CyclinT (Homo sapiens, UniProt P50750); experiment: ADP-Glo kinase assay, primary screen; format: biochemical; conditions: n=2, read-out: % of residual activity Hs_CDK9/CyclinT
T7 construct: host or cells: Sf9 insect cells (baculovirus)
T7 sequence (P50750 whole entry): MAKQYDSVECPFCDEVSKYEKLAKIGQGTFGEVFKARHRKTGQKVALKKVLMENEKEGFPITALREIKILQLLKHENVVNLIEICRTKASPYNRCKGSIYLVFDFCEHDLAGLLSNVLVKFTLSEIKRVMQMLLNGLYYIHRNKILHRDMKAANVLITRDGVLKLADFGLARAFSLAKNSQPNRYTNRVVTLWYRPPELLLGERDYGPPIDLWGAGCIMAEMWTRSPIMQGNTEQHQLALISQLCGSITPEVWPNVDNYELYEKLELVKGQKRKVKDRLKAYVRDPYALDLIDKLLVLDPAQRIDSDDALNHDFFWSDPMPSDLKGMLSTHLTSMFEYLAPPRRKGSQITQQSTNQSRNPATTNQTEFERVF
T7 sequence (O60563 whole entry partner): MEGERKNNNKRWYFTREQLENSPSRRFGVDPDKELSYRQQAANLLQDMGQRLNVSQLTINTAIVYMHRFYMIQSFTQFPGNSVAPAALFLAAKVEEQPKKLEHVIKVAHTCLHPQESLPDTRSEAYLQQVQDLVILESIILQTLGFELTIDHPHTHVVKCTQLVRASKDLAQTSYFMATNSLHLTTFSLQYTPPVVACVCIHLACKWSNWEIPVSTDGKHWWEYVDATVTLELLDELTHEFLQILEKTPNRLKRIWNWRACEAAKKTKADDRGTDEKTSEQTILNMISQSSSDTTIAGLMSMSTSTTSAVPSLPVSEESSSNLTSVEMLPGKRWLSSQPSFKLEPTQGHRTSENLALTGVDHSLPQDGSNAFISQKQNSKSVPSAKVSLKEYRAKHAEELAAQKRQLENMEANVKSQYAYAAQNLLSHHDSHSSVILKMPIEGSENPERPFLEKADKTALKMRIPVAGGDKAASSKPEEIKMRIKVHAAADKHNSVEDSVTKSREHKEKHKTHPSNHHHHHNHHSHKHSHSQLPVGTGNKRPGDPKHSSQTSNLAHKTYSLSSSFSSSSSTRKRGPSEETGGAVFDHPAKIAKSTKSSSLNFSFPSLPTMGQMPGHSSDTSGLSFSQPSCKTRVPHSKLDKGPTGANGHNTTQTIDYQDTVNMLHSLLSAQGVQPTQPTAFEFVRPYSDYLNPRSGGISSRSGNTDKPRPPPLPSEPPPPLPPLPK

Hs_PIM1 = target: T8, Hs_PIM1 (Homo sapiens, UniProt P11309); experiment: ADP-Glo kinase assay, primary screen; format: biochemical; conditions: n=2, read-out: % of residual activity Hs_PIM1
T8 construct: host or cells: Sf9 insect cells (baculovirus)
T8 sequence (P11309 whole entry): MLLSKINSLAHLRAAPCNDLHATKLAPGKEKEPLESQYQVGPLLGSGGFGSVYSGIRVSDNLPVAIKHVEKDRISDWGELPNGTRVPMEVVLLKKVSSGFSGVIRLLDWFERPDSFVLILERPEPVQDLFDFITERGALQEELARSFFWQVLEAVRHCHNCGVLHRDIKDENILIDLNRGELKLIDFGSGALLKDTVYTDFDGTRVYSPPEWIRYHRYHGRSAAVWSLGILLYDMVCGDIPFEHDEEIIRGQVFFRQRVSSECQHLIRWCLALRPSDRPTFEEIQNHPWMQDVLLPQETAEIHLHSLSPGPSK

[5] = cytotoxic assay, nuclei count (Hoechst, HCS); format: cell-based; conditions: human, HuH7 cells (hepatocellular carcinoma); 48 h treatment; read-out: Cytotoxic studies IC50 HuH7
Hs_GSK3β = target: T9, Hs_GSK3β (Homo sapiens, UniProt P49841); experiment: ADP-Glo kinase assay, primary screen; format: biochemical; conditions: n=2, read-out: % of residual activity Hs_GSK3β
T9 construct: host or cells: Sf9 insect cells (baculovirus)
T9 sequence (P49841 whole entry): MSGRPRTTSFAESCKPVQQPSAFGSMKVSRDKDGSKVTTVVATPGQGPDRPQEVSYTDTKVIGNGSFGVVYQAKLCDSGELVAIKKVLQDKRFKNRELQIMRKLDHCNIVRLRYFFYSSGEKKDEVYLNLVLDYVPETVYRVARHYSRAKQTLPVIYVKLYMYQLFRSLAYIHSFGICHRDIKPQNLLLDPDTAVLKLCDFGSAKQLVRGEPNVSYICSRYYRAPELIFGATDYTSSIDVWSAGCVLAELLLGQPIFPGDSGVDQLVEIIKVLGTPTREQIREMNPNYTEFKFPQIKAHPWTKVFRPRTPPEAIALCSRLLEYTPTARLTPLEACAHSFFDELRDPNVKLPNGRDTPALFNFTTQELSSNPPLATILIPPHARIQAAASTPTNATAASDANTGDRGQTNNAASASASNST

HsDYRK1A = target: T10, HsDYRK1A (Homo sapiens, UniProt Q13627); experiment: ADP-Glo kinase assay; format: biochemical; conditions: n=2, read-out: % of residual activity Hs_DYRK1A
T10 construct: host or cells: Sf9 insect cells (baculovirus)

## Cc1ccc(-n2cc(COc3cccc4cnc(Nc5ccccc5)nc34)nn2)c([N+](=O)[O-])c1 [7a, N-Phenyl-8-((1-(4-methyl-2-nitrophenyl)-1H-1,2,3-triazol-4-yl)methoxy)quinazolin-2-amine]
Hs_HASPIN; 1 µM
  remaining activity at 1 µM: 95%
Hs_HASPIN; 10 µM
  remaining activity at 10 µM: 94%
HsCLK1; 10 µM ATP, duplicate, read-out: IC50 HsCLK1
  IC50: 1.1 µM
HsCLK1; ratio of IC50 1100 and […] nM
  times less active than DB18 on human CLK1: 100 times
[1]
  IC50 at 48 h: 7 µM
[2]; HCT116 cells (colorectal adenocarcinoma), read-out: Cytotoxic studies IC50 HCT116
  IC50 at 48 h: 7 µM
[2]; MDA-MB-468 cells (breast carcinoma), read-out: Cytotoxic studies IC50 MDA-MB-468
  IC50 at 48 h: > 25 µM
[3]
  IC50 at 48 h: 9 µM
Hs_CDK5/p25; 1 µM
  remaining activity at 1 µM: ≥ 100%
Hs_CDK5/p25; 10 µM
  remaining activity at 10 µM: 65%
Rn_DYRK1A; 1 µM
  remaining activity at 1 µM: 56%
Rn_DYRK1A; 10 µM
  remaining activity at 10 µM: 90%
Hs_CK1ε; 1 µM
  remaining activity at 1 µM: 93%
Hs_CK1ε; 10 µM
  remaining activity at 10 µM: 89%
Human skin fibroblasts
  toxicity towards fibroblasts: non-toxic
[4]
  IC50 at 48 h: > 25 µM
MmCLK1; 1 µM, n=2, read-out: % of residual activity Mm_CLK1
  remaining activity at 1 µM: 43%
MmCLK1; 10 µM, n=2, read-out: % of residual activity Mm_CLK1
  remaining activity at 10 µM: 30%
MmCLK1; mouse CLK1 orthologue, read-out: IC50 MmCLK1
  IC50: 0.466 µM
Hs_CDK9/CyclinT; 1 µM
  remaining activity at 1 µM: 55%
Hs_CDK9/CyclinT; 10 µM
  remaining activity at 10 µM: 45%
Hs_PIM1; 1 µM
  remaining activity at 1 µM: 81%
Hs_PIM1; 10 µM
  remaining activity at 10 µM: 60%
[5]
  IC50 at 48 h: 3 µM
Hs_GSK3β; 1 µM
  remaining activity at 1 µM: 87%
Hs_GSK3β; 10 µM
  remaining activity at 10 µM: 70%
HsDYRK1A; 1 µM
  remaining activity at 1 µM: ≥ 100%
HsDYRK1A; 10 µM
  remaining activity at 10 µM: 92%
